Results taken from the supplement of paper PMC10627819.

Legend:
B. subtilis 168 [1] = assay: fitness (endpoint OD595 vs no drug) (fraction); higher = more growth
Method in brief: (§1)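 Fitness is computed from the optical density at which cultures reach stationary phase, divided by the robust mean of no-drug control wells. Any value above 1 is set to 1. Cultures started at OD595 0.01 in 384-well plates with TSB, LB Lennox or CY at 37 °C, and OD595 was read every 30 min for 14 h against a first-reading background.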

S. pneumoniae D39V [2] = assay: as above
Method in brief: as §1

B. subtilis 168 [3] = assay: Bliss interaction score (quartile over a dose matrix) (fitness difference); higher = more antagonism (negative = synergy)
Method in brief: (§2)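 Fitness here means normalised growth, inferred for single drugs from the combination data. Growth was OD595 at entry into stationary phase, divided by the plate's robust no-drug mean and capped at 1. The Bliss score is observed minus expected fitness, with the expectation being the product, and its quartiles span technical, biological and donor/recipient replicates.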

S. aureus DSM 20231 = assay: as above
Method in brief: as §2

S. aureus Newman = assay: as above
Method in brief: as §2

S. pneumoniae D39V [4] = assay: as above
Method in brief: as §2
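Throughout, for Bliss interaction score (quartile over a dose matrix): first quartile when negative (synergy) and third quartile when positive (antagonism).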
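Throughout, for fitness (endpoint OD595 vs no drug): OD595 on entry to stationary phase over no-drug wells; at most 1.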

C[C@H]1COc2c(N3CCN(C)CC3)c(F)cc3c(=O)c(C(=O)O)cn1c23 [Levofloxacin] + CN[C@@H]1[C@H](O[C@H]2[C@H](O[C@H]3[C@H](O)[C@@H](O)[C@H](N=C(N)N)[C@@H](O)[C@@H]3N=C(N)N)O[C@@H](C)[C@]2(O)C=O)O[C@@H](CO)[C@H](O)[C@H]1O [Streptomycin]
fitness, one replicate
Settings	first compound 0.001 µg/mL	first compound 0.002 µg/mL	first compound 0.0039 µg/mL	first compound 0.2 µg/mL	first compound 0.4 µg/mL	first compound 0.8 µg/mL
B. subtilis 168 [1], partner 2 µg/mL	0.963	0.952	0.932	–	–	–
B. subtilis 168 [1], partner 4 µg/mL	≥ 1	0.737	0.832	–	–	–
B. subtilis 168 [1], partner 8 µg/mL	0.252	0.0282	0.047	–	–	–
S. pneumoniae D39V [2], partner 2 µg/mL	–	–	–	0.955	0.855	0.346
S. pneumoniae D39V [2], partner 16 µg/mL	–	–	–	0.718	0.602	0.208

fitness
Settings	partner 2 µg/mL	partner 4 µg/mL	partner 8 µg/mL
B. subtilis 168 [1], first compound 0.0312 µg/mL	0.0408	0.0413	0.0242
B. subtilis 168 [1], first compound 0.0625 µg/mL	0.0475	0.0546	0.033
B. subtilis 168 [1], first compound 0.125 µg/mL	0.0446	0.0475	0.0333
S. pneumoniae D39V [2], first compound 0.1725 µg/mL	0.942	0.923	0.927
S. pneumoniae D39V [2], first compound 0.2 µg/mL	–	0.9	0.798
S. pneumoniae D39V [2], first compound 0.345 µg/mL	0.817	0.812	0.788
S. pneumoniae D39V [2], first compound 0.4 µg/mL	–	0.806	0.704
S. pneumoniae D39V [2], first compound 0.69 µg/mL	0.316	0.422	0.445
S. pneumoniae D39V [2], first compound 0.8 µg/mL	–	0.307	0.293

Settings	Bliss interaction score
B. subtilis 168 [3]	0.0365
S. aureus DSM 20231	-0.0487
S. aureus Newman	0.0694
S. pneumoniae D39V [4]	-0.0992

CN(C)C(=O)C(CCN1CCC(O)(c2ccc(Cl)cc2)CC1)(c1ccccc1)c1ccccc1 [Loperamide] + COc1c(N2C[C@@H]3CCCN[C@@H]3C2)c(F)cc2c(=O)c(C(=O)O)cn(C3CC3)c12 [Moxifloxacin]
Settings	fitness
B. subtilis 168 [1], first compound 25 µg/mL, partner 0.0312 µg/mL	0.0408
B. subtilis 168 [1], first compound 25 µg/mL, partner 0.0625 µg/mL	0.0524
B. subtilis 168 [1], first compound 25 µg/mL, partner 0.125 µg/mL	0.0382
B. subtilis 168 [1], first compound 25 µg/mL, partner 2 µg/mL	0.0259
B. subtilis 168 [1], first compound 25 µg/mL, partner 4 µg/mL	0.0205
B. subtilis 168 [1], first compound 25 µg/mL, partner 8 µg/mL	0.017
B. subtilis 168 [1], first compound 50 µg/mL, partner 0.0312 µg/mL	0.0458
B. subtilis 168 [1], first compound 50 µg/mL, partner 0.0625 µg/mL	0.0525
B. subtilis 168 [1], first compound 50 µg/mL, partner 0.125 µg/mL	0.068
B. subtilis 168 [1], first compound 50 µg/mL, partner 2 µg/mL	0.0274
B. subtilis 168 [1], first compound 50 µg/mL, partner 4 µg/mL	0.0294
B. subtilis 168 [1], first compound 50 µg/mL, partner 8 µg/mL	0.0145
B. subtilis 168 [1], first compound 100 µg/mL, partner 0.0312 µg/mL	0.0464
B. subtilis 168 [1], first compound 100 µg/mL, partner 0.0625 µg/mL	0.0527
B. subtilis 168 [1], first compound 100 µg/mL, partner 0.125 µg/mL	0.0413
B. subtilis 168 [1], first compound 100 µg/mL, partner 2 µg/mL	0.0272
B. subtilis 168 [1], first compound 100 µg/mL, partner 4 µg/mL	0.0176
B. subtilis 168 [1], first compound 100 µg/mL, partner 8 µg/mL	0.0179
S. pneumoniae D39V [2], first compound 17.14 µg/mL, partner 0.0037 µg/mL	0.897
S. pneumoniae D39V [2], first compound 17.14 µg/mL, partner 0.0075 µg/mL	0.952
S. pneumoniae D39V [2], first compound 17.14 µg/mL, partner 0.015 µg/mL	0.85
S. pneumoniae D39V [2], first compound 20 µg/mL, partner 0.005 µg/mL	≥ 1
S. pneumoniae D39V [2], first compound 20 µg/mL, partner 0.01 µg/mL	≥ 1
S. pneumoniae D39V [2], first compound 20 µg/mL, partner 0.02 µg/mL	≥ 1
S. pneumoniae D39V [2], first compound 34.28 µg/mL, partner 0.0037 µg/mL	0.822
S. pneumoniae D39V [2], first compound 34.28 µg/mL, partner 0.0075 µg/mL	0.905
S. pneumoniae D39V [2], first compound 34.28 µg/mL, partner 0.015 µg/mL	0.836
S. pneumoniae D39V [2], first compound 40 µg/mL, partner 0.005 µg/mL	≥ 1
S. pneumoniae D39V [2], first compound 40 µg/mL, partner 0.01 µg/mL	≥ 1
S. pneumoniae D39V [2], first compound 40 µg/mL, partner 0.02 µg/mL	≥ 1

S. pneumoniae D39V [2], first compound 68.57 µg/mL, one replicate
Settings	fitness
partner 0.0037 µg/mL	0.729
partner 0.0075 µg/mL	0.796
partner 0.015 µg/mL	0.779

Settings	Bliss interaction score
B. subtilis 168 [3]	0.035
S. aureus DSM 20231	0.13
S. aureus Newman	0.0359
S. pneumoniae D39V [4]	0.0769

C[C@H]1COc2c(N3CCN(C)CC3)c(F)cc3c(=O)c(C(=O)O)cn1c23 [Levofloxacin] + CC(=O)NC[C@H]1CN(c2ccc(N3CCOCC3)c(F)c2)C(=O)O1 [Linezolid]
fitness, B. subtilis 168 [1], one replicate
Settings	first compound 0.001 µg/mL	first compound 0.002 µg/mL	first compound 0.0039 µg/mL	first compound 0.0078 µg/mL
partner 0.0625 µg/mL	–	0.886	0.846	0.862
partner 0.125 µg/mL	0.82	–	–	0.615
partner 0.25 µg/mL	0.66	–	–	0.0853
partner 0.5 µg/mL	0.0709	0.0326	0.0626	–

Settings	fitness
B. subtilis 168 [1], first compound 0.002 µg/mL, partner 0.125 µg/mL	0.696
B. subtilis 168 [1], first compound 0.0039 µg/mL, partner 0.125 µg/mL	0.683
B. subtilis 168 [1], first compound 0.0312 µg/mL, partner 0.125 µg/mL	0.0311
B. subtilis 168 [1], first compound 0.0312 µg/mL, partner 0.25 µg/mL	0.0424
B. subtilis 168 [1], first compound 0.0312 µg/mL, partner 0.5 µg/mL	0.045
B. subtilis 168 [1], first compound 0.0625 µg/mL, partner 0.125 µg/mL	0.0397
B. subtilis 168 [1], first compound 0.0625 µg/mL, partner 0.25 µg/mL	0.0517
B. subtilis 168 [1], first compound 0.0625 µg/mL, partner 0.5 µg/mL	0.0516
B. subtilis 168 [1], first compound 0.125 µg/mL, partner 0.125 µg/mL	0.0523
B. subtilis 168 [1], first compound 0.125 µg/mL, partner 0.25 µg/mL	0.0524
B. subtilis 168 [1], first compound 0.125 µg/mL, partner 0.5 µg/mL	0.0424
S. pneumoniae D39V [2], first compound 0.1725 µg/mL, partner 0.2 µg/mL	0.848
S. pneumoniae D39V [2], first compound 0.1725 µg/mL, partner 0.4 µg/mL	0.669
S. pneumoniae D39V [2], first compound 0.1725 µg/mL, partner 0.8 µg/mL	0.333
S. pneumoniae D39V [2], first compound 0.2 µg/mL, partner 0.105 µg/mL	0.81
S. pneumoniae D39V [2], first compound 0.2 µg/mL, partner 0.21 µg/mL	0.694
S. pneumoniae D39V [2], first compound 0.2 µg/mL, partner 0.42 µg/mL	0.568
S. pneumoniae D39V [2], first compound 0.345 µg/mL, partner 0.2 µg/mL	0.777
S. pneumoniae D39V [2], first compound 0.345 µg/mL, partner 0.4 µg/mL	0.591
S. pneumoniae D39V [2], first compound 0.345 µg/mL, partner 0.8 µg/mL	0.295
S. pneumoniae D39V [2], first compound 0.4 µg/mL, partner 0.105 µg/mL	0.72
S. pneumoniae D39V [2], first compound 0.4 µg/mL, partner 0.21 µg/mL	0.652
S. pneumoniae D39V [2], first compound 0.4 µg/mL, partner 0.42 µg/mL	0.506
S. pneumoniae D39V [2], first compound 0.69 µg/mL, partner 0.2 µg/mL	0.555
S. pneumoniae D39V [2], first compound 0.69 µg/mL, partner 0.4 µg/mL	0.323
S. pneumoniae D39V [2], first compound 0.69 µg/mL, partner 0.8 µg/mL	0.196
S. pneumoniae D39V [2], first compound 0.8 µg/mL, partner 0.105 µg/mL	0.449
S. pneumoniae D39V [2], first compound 0.8 µg/mL, partner 0.21 µg/mL	0.351
S. pneumoniae D39V [2], first compound 0.8 µg/mL, partner 0.42 µg/mL	0.284

Settings	Bliss interaction score
B. subtilis 168 [3]	0.0633
S. aureus DSM 20231	0.0666
S. aureus Newman	0.0972
S. pneumoniae D39V [4]	0.0612

CN(C)C(=O)C(CCN1CCC(O)(c2ccc(Cl)cc2)CC1)(c1ccccc1)c1ccccc1 [Loperamide] + Cc1onc(-c2ccccc2)c1C(=O)N[C@@H]1C(=O)N2[C@@H]1SC(C)(C)[C@@H]2C(=O)O [Oxacillin]
Settings	fitness
B. subtilis 168 [1], first compound 25 µg/mL, partner 0.002 µg/mL	0.749
B. subtilis 168 [1], first compound 25 µg/mL, partner 0.004 µg/mL	0.697
B. subtilis 168 [1], first compound 50 µg/mL, partner 0.002 µg/mL	0.0423
B. subtilis 168 [1], first compound 50 µg/mL, partner 0.004 µg/mL	0.0371
B. subtilis 168 [1], first compound 50 µg/mL, partner 0.008 µg/mL	0.0519
B. subtilis 168 [1], first compound 100 µg/mL, partner 0.002 µg/mL	0.0346
B. subtilis 168 [1], first compound 100 µg/mL, partner 0.004 µg/mL	0.0357
B. subtilis 168 [1], first compound 100 µg/mL, partner 0.008 µg/mL	0.0283
S. pneumoniae D39V [2], first compound 17.14 µg/mL, partner 0.01 µg/mL	0.976
S. pneumoniae D39V [2], first compound 17.14 µg/mL, partner 0.02 µg/mL	0.878
S. pneumoniae D39V [2], first compound 20 µg/mL, partner 0.01 µg/mL	0.99
S. pneumoniae D39V [2], first compound 20 µg/mL, partner 0.02 µg/mL	0.869
S. pneumoniae D39V [2], first compound 20 µg/mL, partner 0.04 µg/mL	0.156
S. pneumoniae D39V [2], first compound 34.28 µg/mL, partner 0.01 µg/mL	0.908
S. pneumoniae D39V [2], first compound 40 µg/mL, partner 0.01 µg/mL	0.859
S. pneumoniae D39V [2], first compound 40 µg/mL, partner 0.04 µg/mL	0.109
S. pneumoniae D39V [2], first compound 80 µg/mL, partner 0.04 µg/mL	0.0757

fitness, one replicate
Settings	partner 0.01 µg/mL	partner 0.02 µg/mL	partner 0.04 µg/mL	partner 0.075 µg/mL	partner 0.15 µg/mL	partner 0.3 µg/mL
B. subtilis 168 [1], first compound 25 µg/mL	–	–	–	0.0507	0.0511	0.0488
B. subtilis 168 [1], first compound 50 µg/mL	–	–	–	0.0519	0.0509	0.0494
B. subtilis 168 [1], first compound 100 µg/mL	–	–	–	0.0598	0.0504	0.0472
S. pneumoniae D39V [2], first compound 68.57 µg/mL	0.979	0.901	0.618	–	–	–

Settings	Bliss interaction score
B. subtilis 168 [3]	-0.0924
S. aureus DSM 20231	-0.0615
S. aureus Newman	0.077
S. pneumoniae D39V [4]	-0.33
